In patent US8471005B2 (Cephalon, Inc., priority 2008, dated 2013):
Read-outs that look alike come from different tables or passages of the source.

Tests used:
ALK = target: T1, ALK (Homo sapiens, UniProt Q9UM73); assay: ALK Kinase Assay (ELISA/TRF, PLC-γ substrate); format: biochemical; settings: read-out: ALK Potency
T1 construct: host or cells: baculovirus expression system
Outline: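 Wells were coated with 10 μg/mL phospholipase C-γ substrate in TBS, and the reaction was started by adding 30 ng/ml ALK enzyme and run at 37° C for 15 minutes. Phosphorylated product was detected with Eu-N1-labeled PT66 antibody, and IC50 values came from sigmoidal variable-slope fits of percent inhibition against log concentration.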

JAK2 = target: T2, JAK2 (Homo sapiens, UniProt O60674); assay: Recombinant Human JAK2 Kinase Assay (TRF); format: biochemical; settings: read-out: JAK2 Potency
T2 construct: host or cells: baculovirus expression system
T2 sequence (O60674 whole entry): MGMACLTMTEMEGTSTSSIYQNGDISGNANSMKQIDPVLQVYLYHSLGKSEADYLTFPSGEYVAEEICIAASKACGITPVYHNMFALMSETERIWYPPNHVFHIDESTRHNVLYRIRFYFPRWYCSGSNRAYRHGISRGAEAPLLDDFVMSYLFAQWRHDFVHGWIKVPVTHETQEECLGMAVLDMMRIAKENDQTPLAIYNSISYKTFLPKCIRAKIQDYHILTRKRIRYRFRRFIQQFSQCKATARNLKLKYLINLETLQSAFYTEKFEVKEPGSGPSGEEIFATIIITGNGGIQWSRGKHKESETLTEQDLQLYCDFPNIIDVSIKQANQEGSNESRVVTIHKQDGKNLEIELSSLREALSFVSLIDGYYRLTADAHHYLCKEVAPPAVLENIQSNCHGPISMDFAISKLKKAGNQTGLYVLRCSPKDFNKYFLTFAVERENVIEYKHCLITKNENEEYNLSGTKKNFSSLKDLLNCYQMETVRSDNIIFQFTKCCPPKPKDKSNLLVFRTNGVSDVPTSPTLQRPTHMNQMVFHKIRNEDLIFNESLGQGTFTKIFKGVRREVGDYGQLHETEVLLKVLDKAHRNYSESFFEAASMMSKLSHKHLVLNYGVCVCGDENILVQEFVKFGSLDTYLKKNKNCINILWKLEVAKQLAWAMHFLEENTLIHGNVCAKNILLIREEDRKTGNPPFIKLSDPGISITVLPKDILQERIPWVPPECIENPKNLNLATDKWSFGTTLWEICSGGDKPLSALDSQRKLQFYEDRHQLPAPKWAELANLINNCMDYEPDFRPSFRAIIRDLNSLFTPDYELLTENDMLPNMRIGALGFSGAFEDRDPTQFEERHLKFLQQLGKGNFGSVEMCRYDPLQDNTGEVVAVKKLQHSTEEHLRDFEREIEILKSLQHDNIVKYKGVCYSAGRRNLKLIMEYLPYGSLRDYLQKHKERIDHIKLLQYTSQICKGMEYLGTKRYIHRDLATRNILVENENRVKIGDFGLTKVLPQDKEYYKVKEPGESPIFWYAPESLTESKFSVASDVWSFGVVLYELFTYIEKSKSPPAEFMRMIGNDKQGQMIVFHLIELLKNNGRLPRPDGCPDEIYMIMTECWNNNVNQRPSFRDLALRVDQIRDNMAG
Outline: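 TRF read-out: Eu-N1 PY100 anti-phosphotyrosine antibody detects product. Enzyme is baculovirus-expressed JAK2 at 15 ng/ml; substrate is a biotinyl 15-mer peptide bound to Neutravidin-coated wells. Buffer 20 mM HEPES pH 7.2, 0.2 μM ATP, 1 mM MnCl2, 0.1% BSA, 2.5% DMSO final; 20 min, RT.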

[1] = ALK kinase inhibition, 1 μM ATP
[2] = JAK2 kinase inhibition, 0.2 μM ATP

T1 sequence (Q9UM73 19-1620): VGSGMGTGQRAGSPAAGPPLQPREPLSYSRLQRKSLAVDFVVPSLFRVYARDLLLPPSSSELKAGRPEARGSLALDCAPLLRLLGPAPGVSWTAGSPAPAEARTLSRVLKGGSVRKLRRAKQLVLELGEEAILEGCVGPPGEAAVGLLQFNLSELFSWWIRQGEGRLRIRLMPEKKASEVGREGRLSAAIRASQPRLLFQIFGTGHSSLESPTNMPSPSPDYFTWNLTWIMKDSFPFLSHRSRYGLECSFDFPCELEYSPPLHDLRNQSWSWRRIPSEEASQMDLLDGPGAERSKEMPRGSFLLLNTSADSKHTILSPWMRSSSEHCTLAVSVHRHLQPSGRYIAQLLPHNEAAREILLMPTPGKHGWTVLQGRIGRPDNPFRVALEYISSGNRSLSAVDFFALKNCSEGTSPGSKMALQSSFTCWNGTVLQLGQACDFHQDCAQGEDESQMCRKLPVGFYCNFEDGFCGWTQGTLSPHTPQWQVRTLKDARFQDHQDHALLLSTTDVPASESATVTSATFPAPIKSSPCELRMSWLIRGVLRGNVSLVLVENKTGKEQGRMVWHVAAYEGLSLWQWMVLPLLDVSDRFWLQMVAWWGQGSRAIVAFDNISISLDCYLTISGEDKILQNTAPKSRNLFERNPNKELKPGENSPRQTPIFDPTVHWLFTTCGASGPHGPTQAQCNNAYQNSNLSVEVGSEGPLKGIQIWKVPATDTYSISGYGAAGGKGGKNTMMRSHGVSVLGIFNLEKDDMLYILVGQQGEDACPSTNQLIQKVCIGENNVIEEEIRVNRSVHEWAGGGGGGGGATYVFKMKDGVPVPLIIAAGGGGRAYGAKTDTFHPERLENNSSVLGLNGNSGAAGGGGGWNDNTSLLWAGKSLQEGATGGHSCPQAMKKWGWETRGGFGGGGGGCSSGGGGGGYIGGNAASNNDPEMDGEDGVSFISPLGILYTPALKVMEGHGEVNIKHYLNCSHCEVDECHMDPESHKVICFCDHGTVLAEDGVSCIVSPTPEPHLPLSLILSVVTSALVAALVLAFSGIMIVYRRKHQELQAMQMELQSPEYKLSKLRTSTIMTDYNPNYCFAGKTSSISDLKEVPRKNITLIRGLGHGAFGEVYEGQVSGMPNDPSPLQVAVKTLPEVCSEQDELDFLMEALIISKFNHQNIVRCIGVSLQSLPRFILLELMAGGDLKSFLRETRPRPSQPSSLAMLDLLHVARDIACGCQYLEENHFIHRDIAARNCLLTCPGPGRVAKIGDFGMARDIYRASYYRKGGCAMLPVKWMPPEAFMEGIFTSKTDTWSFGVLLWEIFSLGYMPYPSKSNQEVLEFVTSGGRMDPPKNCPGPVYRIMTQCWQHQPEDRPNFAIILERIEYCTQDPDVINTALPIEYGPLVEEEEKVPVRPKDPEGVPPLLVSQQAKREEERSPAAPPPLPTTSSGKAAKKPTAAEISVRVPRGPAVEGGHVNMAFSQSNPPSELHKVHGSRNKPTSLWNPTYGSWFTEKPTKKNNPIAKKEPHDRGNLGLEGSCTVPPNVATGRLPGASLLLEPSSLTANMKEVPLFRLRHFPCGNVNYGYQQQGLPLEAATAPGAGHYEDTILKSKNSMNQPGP

IC50 (ALK; [1]) [nM] | IC50 (JAK2; [2]) [nM] | IC50 (ALK; ALK Kinase Inhibition) [nM] | IC50 (JAK2; JAK2 Kinase Inhibition) [nM] | SMILES
100 to 1000 | < 100 |  |  | CC(C)(C)NS(=O)(=O)c1cccc(-c2ccc3cnc(Nc4cccc(N)c4)nn23)c1 [Example 896, 3-[2-(3-Amino-phenylamino)-pyrrolo[2,1-f][1,2,4]triazin-7-yl]-N-tert-butyl-benzenesulfonamide]
1000 to 10000 | < 100 |  |  | Cc1cc2cnc(Nc3ccc(C4CCN(CC(N)=O)CC4)cc3)nn2c1-c1ccccc1N(C)S(C)(=O)=O [Example 516, 2-[4-(4-{7-[2-(Methanesulfonyl-methyl-amino)-phenyl]-6-methyl-pyrrolo[2,1-f][1,2,4]triazin-2-ylamino}-phenyl)-piperidin-1-yl]-acetamide]
1000 to 10000 | < 100 |  |  | COc1ccccc1-c1ccc2cnc(Nc3ccc4cnn(CCN5CCOCC5)c4c3)nn12 [Example 1347, [7-(2-Methoxy-phenyl)-pyrrolo[2,1-f][1,2,4]triazin-2-yl]-[1-(2-morpholin-4-yl-ethyl)-1H-indazol-6-yl]-amine]
< 100 | 1000 to 10000 |  |  | COc1ccc(-c2ccc3cnc(Nc4ccc(C5CCN(CC(N)=O)CC5)cc4OC)nn23)c(OC)c1 [Example 745, 2-(4-{4-[7-(2,4-Dimethoxy-phenyl)-pyrrolo[2,1-f][1,2,4]triazin-2-ylamino]-3-methoxy-phenyl}-piperidin-1-yl)-acetamide]
 |  | 1000 to 10000 | < 100 | Cn1cc(-c2ccc3cnc(Nc4cccc(NS(C)(=O)=O)c4)nn23)cn1 [Example 1389, N-{3-[7-(1-Methyl-1H-pyrazol-4-yl)-pyrrolo[2,1-f][1,2,4]triazin-2-ylamino]-phenyl}-methanesulfonamide]
 |  | 100 to 1000 | 100 to 1000 | CC(C)(C)NS(=O)(=O)c1ccccc1-c1ccc2cnc(Nc3ccc(N4CCOCC4)cc3)nn12 [Example 412]
 |  | 1000 to 10000 | < 100 | COc1ccccc1-c1ccc2cnc(Nc3ccc4ncccc4c3)nn12 [Example 172, [7-(2-Methoxy-phenyl)-pyrrolo[2,1-f][1,2,4]triazin-2-yl]-quinolin-6-yl-amine]
 |  | 100 to 1000 | < 100 | COCCN1CCc2ccc(Nc3ncc4ccc(-c5ccccc5S(=O)(=O)N5CCCC5)n4n3)cc2CC1 [Example 32, [3-(2-Methoxy-ethyl)-2,3,4,5-tetrahydro-1H-benzo[d]azepin-7-yl]-{7-[2-(pyrrolidine-1-sulfonyl)-phenyl]-pyrrolo[2,1-f][1,2,4]triazin-2-yl}-amine]
 |  | > 10000 | < 100 | CC(C)(C)OC(=O)c1ccc(-c2ccc3cnc(Nc4ccc(N5CCOCC5)cc4)nn23)cc1 [Example 44, 4-[2-(4-Morpholin-4-yl-phenylamino)-pyrrolo[2,1-f][1,2,4]triazin-7-yl]-benzoic acid tert-butyl ester]
< 100 | < 100 |  |  | C[C@H](O)CN1CCC(c2ccc(Nc3ncc4ccc(-c5cccc(NS(C)(=O)=O)c5)n4n3)cc2)CC1 [Example 957, N-[3-(2-{4-[1-((S)-2-Hydroxy-propyl)-piperidin-4-yl]-phenylamino}-pyrrolo[2,1-f][1,2,4]triazin-7-yl)-phenyl]-methanesulfonamide]
> 10000 | < 100 |  |  | O=S(=O)(CC1CC1)c1cccc(-c2ccc3cnc(Nc4ccc5nc(C(F)(F)F)[nH]c5c4)nn23)c1 [Example 1318, [7-(3-Cyclopropylmethanesulfonyl-phenyl)-pyrrolo[2,1-f][1,2,4]triazin-2-yl]-(2-trifluoromethyl-3H-benzimidazol-5-yl)-amine]
< 100 | 100 to 1000 |  |  | COc1cc2c(cc1Nc1ncc3ccc(-c4cccc(S(=O)(=O)NC5CC5)c4)n3n1)CCN(CC(N)=O)CC2 [Example 524, 2-{7-[7-(3-Cyclopropylsulfamoyl-phenyl)-pyrrolo[2,1-f][1,2,4]triazin-2-ylamino]-8-methoxy-1,2,4,5-tetrahydro-benzo[d]azepin-3-yl}-acetamide]
1000 to 10000 | < 100 |  |  | N#CCCn1cccc1-c1ccc2cnc(Nc3cccc(N4CCCC4=O)c3)nn12 [Example 1296, 3-(2-{2-[3-(2-oxo-pyrrolidin-1-yl)-phenylamino]-pyrrolo[2,1-f][1,2,4]triazin-7-yl}-pyrrol-1-yl)-propionitrile]
100 to 1000 | < 100 |  |  | CCN1CCOC(c2ccc(Nc3ncc4ccc(-c5cccc(S(=O)(=O)NC(C)(C)C)c5)n4n3)cc2)C1 (stereo not shown) [Example 653, N-tert-Butyl-3-{2-[4-(4-ethyl-morpholin-2-yl)-phenylamino]-pyrrolo[2,1-f][1,2,4]triazin-7-yl}benzenesulfonamide]
1000 to 10000 | < 100 |  |  | CN(c1ccccc1-c1ccc2cnc(-n3ccnc3)nn12)S(C)(=O)=O [Example 622, N-[2-(2-Imidazol-1-yl-pyrrolo[2,1-f][1,2,4]triazin-7-yl)-phenyl]-N-methyl-methanesulfonamide]
 |  | 100 to 1000 | < 100 | COc1cc(Nc2ncc3ccc(-c4ccccc4)n3n2)cc(OC)c1OC [Example 13, (7-Phenyl-pyrrolo[2,1-f][1,2,4]triazin-2-yl)-(3,4,5-trimethoxy-phenyl)amine]
100 to 1000 | < 100 |  |  | Fc1ncccc1-c1ccc2cnc(Nc3ccc(N4CCOCC4)cc3)nn12 [Example 1040, [7-(2-Fluoro-pyridin-3-yl)-pyrrolo[2,1-f][1,2,4]triazin-2-yl]-(4-morpholin-4-yl-phenyl)-amine]
 |  | < 100 | < 100 | COc1cc(N2CCCC(N3CCN(C(C)=O)CC3)C2)ccc1Nc1ncc2ccc(-c3ccccc3OC)n2n1 (stereo not shown) [Example 232, 1-[4-(1-{3-Methoxy-4-[7-(2-methoxy-phenyl)-pyrrolo[2,1-f][1,2,4]triazin-2-ylamino]-phenyl}-piperidin-3-yl)-piperazin-1-yl]-ethanone]
< 100 | < 100 |  |  | COc1ccccc1-c1ccc2cnc(Nc3cccc(OCC4CCCN4C)c3)nn12 (stereo not shown) [Example 1006]
 |  | 100 to 1000 | < 100 | CN1C(=O)Cc2cc(Nc3ncc4ccc(-c5ccccc5N(C)S(C)(=O)=O)n4n3)ccc21 [Example 375, N-Methyl-N-{2-[2-(1-methyl-2-oxo-2,3-dihydro-1H-indol-5-ylamino)-pyrrolo[2,1-f][1,2,4]triazin-7-yl]-phenyl}-methanesulfonamide]
 |  | 1000 to 10000 | < 100 | COc1ccc(-c2ccc3cnc(Nc4ccc(N5CCN(CC(N)=O)CC5)c(F)c4)nn23)cn1 [Example 1414, 2-(4-{2-Fluoro-4-[7-(6-methoxy-pyridin-3-yl)-pyrrolo[2,1-f][1,2,4]triazin-2-ylamino]-phenyl}-piperazin-1-yl)-acetamide]
 |  | 1000 to 10000 | < 100 | COc1cccc(Nc2ncc3ccc(-c4cc(Cl)ccc4OC)n3n2)c1 [Example 144, [7-(5-Chloro-2-methoxy-phenyl)-pyrrolo[2,1-f][1,2,4]triazin-2-yl]-(3-methoxy-phenyl)-amine]
< 100 | 1000 to 10000 |  |  | COc1cc(C2CCN(CC(N)=O)CC2)ccc1Nc1ncc2ccc(-c3cn(C)nc3N(C)S(C)(=O)=O)n2n1 [Example 1256, 2-[4-(4-{7-[3-(Methanesulfonyl-methyl-amino)-1-methyl-1H-pyrazol-4-yl]-pyrrolo[2,1-f][1,2,4]triazin-2-ylamino}-3-methoxy-phenyl)-piperidin-1-yl]-acetamide]
1000 to 10000 | < 100 |  |  | CN1CCN(c2ccc(Nc3ncc4ccc(-c5cncc(CNCCS(C)(=O)=O)c5)n4n3)cc2)CC1 [Example 1198, (7-{5-[(2-Methanesulfonyl-ethylamino)-methyl]-pyridin-3-yl}-pyrrolo[2,1-f][1,2,4]triazin-2-yl)-[4-(4-methyl-piperazin-1-yl)-phenyl]-amine]
< 100 | < 100 |  |  | N#CCCc1cccc(-c2ccc3cnc(Nc4ccc5c(c4)CCC(N4CCOCC4)CC5)nn23)c1 (stereo not shown) [Example 1148, 3-{3-[2-(7-Morpholin-4-yl-6,7,8,9-tetrahydro-5H-benzocyclohepten-2-ylamino)-pyrrolo[2,1-f][1,2,4]triazin-7-yl]-phenyl}-propionitrile]
 |  | 100 to 1000 | < 100 | COc1ccccc1-c1ccc2cnc(Nc3cccc(C(=O)N4CCN(C)CC4)c3)nn12 [Example 338, {3-[7-(2-Methoxy-phenyl)-pyrrolo[2,1-f][1,2,4]triazin-2-ylamino]-phenyl}-(4-methyl-piperazin-1-yl)-methanone]
100 to 1000 | < 100 |  |  | CN(c1ccccc1-c1ccc2cnc(Nc3ccc(-c4cccnc4)cc3)nn12)S(C)(=O)=O [Example 1092, N-Methyl-N-{2-[2-(4-pyridin-3-yl-phenylamino)-pyrrolo[2,1-f][1,2,4]triazin-7-yl]-phenyl}-methanesulfonamide]
100 to 1000 | 100 to 1000 |  |  | COc1cc(C2(O)CCN(C(=O)OC(C)(C)C)CC2)ccc1Nc1ncc2ccc(-c3ccccc3N(C)S(C)(=O)=O)n2n1 [Example 741, 4-Hydroxy-4-(4-{7-[2-(methanesulfonyl-methyl-amino)-phenyl]-pyrrolo[2,1-f][1,2,4]triazin-2-ylamino}-3-methoxy-phenyl)-piperidine-1-carboxylic acid tert-butyl ester]
< 100 | < 100 |  |  | COc1cc(Cl)ccc1-c1ccc2cnc(Nc3ccc(N4CCC(C(=O)N5CCN(C)CC5)CC4)cc3)nn12 [Example 484, (1-{4-[7-(4-Chloro-2-methoxy-phenyl)-pyrrolo[2,1-f][1,2,4]triazin-2-ylamino]-phenyl}-piperidin-4-yl)-(4-methyl-piperazin-1-yl)-methanone]
